Converted amounts (≈) assume the structure as drawn.

These results are taken from ChEMBL document CHEMBL3044970, “Isoniazid: the magic molecule” (2012).

What all share (assay type): functional
Assay [1] deals with Mycobacterium tuberculosis. Nature of the assay: Antimicrobial activity against Mycobacterium tuberculosis H37Rv infected macrophage model.
The test system of assay [2] is Mycobacterium tuberculosis. Kind of assay: Antimicrobial activity against Mycobacterium tuberculosis H37Rv.
The test system of assay [3] is Mycobacterium tuberculosis. Nature of the assay: Ratio of INH MIC to compound MIC for Mycobacterium tuberculosis H37Rv.
Assay [4] deals with Mycobacterium tuberculosis. Kind of assay: Antimicrobial activity against Mycobacterium tuberculosis H4.
Assay [5] has as its system Mycobacterium tuberculosis. Kind of assay: Antimicrobial activity against Mycobacterium tuberculosis.
In assay [6] the test system is Mycobacterium tuberculosis. Nature of the assay: Antimicrobial activity against Mycobacterium tuberculosis H37Rv by agar dilution method relative to isonicotinoyl hydrazide. A general note: Agar dilution tests growth on a series of plates holding different concentrations.

The compound `O=C1NC(NNC(=O)c2ccncc2)=N/C1=C\c1cccc(Cl)c1` gave an MIC in assay [1] of 0.8 µg/mL (≈ 2.34 µM).

In assay [2], `COc1ccc(C2SCC(=O)N2NC(=O)c2ccncc2)cc1O` (centres undefined) returned an MIC of 0.31 µg/mL.

In assay [2], `COc1ccc(C2C(Cl)C(=O)N2NC(=O)c2ccncc2)cc1O` (centres undefined) registered an MIC of 0.31 µg/mL.

As to `COc1cc(C2=NN(C(=O)c3ccncc3)C(c3ccc(O)cc3)C2)ccc1OCC(=O)O` (centres undefined), the Ratio in assay [3] is listed as 5.6. The compound further returned an MIC in assay [2] of 0.12 µM.

Consider `O=C(c1ccncc1)N1N=C(c2ccccn2)CC1c1cccc(Cl)c1` (centres undefined), for which the MIC in assay [4] and in assay [5] was 8 µg/mL (≈ 22 µM) throughout.

On to `O=C(c1ccncc1)N1N=C(c2ccccn2)CC1c1ccc(Cl)cc1` (centres undefined), for which the MIC in assay [4] and in assay [5] was 8 µg/mL (≈ 22 µM) throughout.

For `Cc1ccccc1C1CC(c2ccccn2)=NN1C(=O)c1ccncc1` (centres undefined), the MIC in assay [4] and in assay [5] was 8 µg/mL (≈ 23.4 µM) throughout.

Consider `O=C(c1ccncc1)N1N=C(c2ccccn2)CC1c1ccccc1` (centres undefined), for which the MIC in assay [4] and in assay [5] was 8 µg/mL (≈ 24.4 µM) each time.

As for `O=C(c1ccncc1)N1N=C(c2ccccn2)CC1c1ccccc1Cl` (centres undefined), the MIC in assay [4] and in assay [5] was 8 µg/mL (≈ 22 µM) in each case.

Turning to `O=C(NNC(=S)Nc1ccccc1C(F)(F)F)c1ccncc1`, the Ratio in assay [6] was 1.24. Besides, in assay [2], the MIC was found to be 0.58 µM.

As to `NNC(=O)c1ccncc1` [ISONIAZID], in assay [5], the MIC amounted to 0.05 µg/mL (≈ 0.365 µM).

`CO[C@H]1/C=C/O[C@@]2(C)Oc3c(C)c(O)c4c(O)c(c(/C=N/N5CCN(C)CC5)c(O)c4c3C2=O)NC(=O)/C(C)=C\C=C\[C@H](C)[C@H](O)[C@@H](C)[C@@H](O)[C@@H](C)[C@H](OC(C)=O)[C@@H]1C` [RIFAMPIN] had an MIC in assay [2] of 0.2 µg/mL.
